Data as given in ChEMBL document CHEMBL4619729, “In silico and in vitro studies on interaction of novel non-imidazole histamine H3R antagonists with CYP3A4” (Bioorg Med Chem Lett, 2020).

Target: T1, Histamine H3 receptor (Homo sapiens, UniProt Q9Y5N1)
Assay: Displacement of [3H]-N-alpha-methylhistamine from human recombinant full length H3R expressed in HEK293 cell membranes by Microbeta scintillation counting method
Settings: not given

T1 sequence (Q9Y5N1 whole entry): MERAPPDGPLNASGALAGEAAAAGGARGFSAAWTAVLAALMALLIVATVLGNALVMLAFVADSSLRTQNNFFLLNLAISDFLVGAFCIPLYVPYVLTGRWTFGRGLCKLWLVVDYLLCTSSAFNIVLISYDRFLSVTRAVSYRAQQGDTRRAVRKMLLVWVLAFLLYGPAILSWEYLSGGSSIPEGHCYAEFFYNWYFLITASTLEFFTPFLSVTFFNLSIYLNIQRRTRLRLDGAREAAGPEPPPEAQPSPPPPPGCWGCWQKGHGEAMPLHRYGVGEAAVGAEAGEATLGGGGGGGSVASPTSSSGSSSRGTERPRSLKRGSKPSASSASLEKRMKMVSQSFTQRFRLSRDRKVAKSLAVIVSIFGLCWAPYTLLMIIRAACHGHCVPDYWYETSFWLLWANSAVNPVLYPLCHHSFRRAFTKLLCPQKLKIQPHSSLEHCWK

| Ki | Compound |
| --- | --- |
| 41 nM | O=C(c1ccccc1)c1cccc(OCCCCCCN2CCCCCC2)c1 |

Target: T2, CYP3A4 (Homo sapiens, UniProt P08684)
Assay: Inhibition of CYP3A4 (unknown origin) assessed as inhibition of conversion of beetle D-luciferin to D-luciferin at 10 uM by luminescent P450-Glo assay relative to control
Type: ADME
Settings: probe beetle D-luciferin

T2 sequence (P08684 whole entry): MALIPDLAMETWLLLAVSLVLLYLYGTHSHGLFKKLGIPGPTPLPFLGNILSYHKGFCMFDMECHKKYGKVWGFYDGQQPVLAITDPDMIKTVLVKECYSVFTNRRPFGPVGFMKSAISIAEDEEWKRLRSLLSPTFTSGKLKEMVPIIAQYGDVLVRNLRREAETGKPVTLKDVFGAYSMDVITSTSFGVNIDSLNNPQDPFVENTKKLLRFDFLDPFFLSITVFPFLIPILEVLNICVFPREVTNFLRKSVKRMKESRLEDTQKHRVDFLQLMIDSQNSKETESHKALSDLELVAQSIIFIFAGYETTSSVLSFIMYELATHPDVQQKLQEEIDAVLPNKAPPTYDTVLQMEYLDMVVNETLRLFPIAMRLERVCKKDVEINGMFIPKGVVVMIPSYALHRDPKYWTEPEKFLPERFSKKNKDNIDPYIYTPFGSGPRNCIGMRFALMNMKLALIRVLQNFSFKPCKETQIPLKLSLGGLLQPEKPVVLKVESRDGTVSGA

| inhibition at 10 µM | Compound |
| --- | --- |
| 23% | Clc1ccc(OCCCCCCN2CCCCCC2)cc1 |
| 4% | CC1CCCN(CCCCCCCOc2ccc(Cl)cc2)C1 (stereo not drawn) |
| 38% | CCC(C)(C)c1ccc(OCCCCCCCN2CCCCCC2)cc1 |
| 41% | CCC(C)(C)c1ccc(OCCCCCCCCN2CCCCCC2)cc1 |
| 19% | CC(C)(C)c1ccc(OCCCCCCN2CCCCCC2)cc1 |
| 17% | Fc1ccc(OCCCCCCN2CCCCCC2)cc1 |

Continued, compound first:

| Compound | inhibition at 10 µM |
| --- | --- |
| c1ccc2c(OCCCCCCN3CCCCCC3)cccc2c1 | 46% |
| CC(C)(C)c1ccc(OCCCN2CCCCC2)cc1 | 61% |
| CCC(C)(C)c1ccc(OCCCN2CCCCC2)cc1 | 8% |
| CCC(C)(C)c1ccc(OCCCCN2CCCCCC2)cc1 | 5% |
| CCC(C)(C)c1ccc(OCCCN2CCCCCC2)cc1 | 13% |
| c1ccc(-c2ccc(OCCCCCCN3CCCCCC3)cc2)cc1 | 13% |
| c1ccc(-c2cccc(OCCCCCCN3CCCCCC3)c2)cc1 | 19% |

Target: T2, CYP3A4
Assay: Activation of human recombinant CYP3A4 assessed as activation of conversion of beetle D-luciferin to D-luciferin at 10 uM preincubated for 10 mins followed by substrate addition and measured after 50 mins in presence of NADPH by CYP450-Glo assay relative to control
Type: ADME
Settings: recombinant CYP3A4, probe beetle D-luciferin, read-out: Activity

| activity at 50 min, 10 µM | Compound |
| --- | --- |
| 14% | c1ccc2cc(OCCCCCCN3CCCCCC3)ccc2c1 |

Target: T1, Histamine H3 receptor
Assay: Binding affinity to H3R (unknown origin)
Settings: not given

| Ki | Compound |
| --- | --- |
| 829 nM | CC(C)(C)c1ccc(OCCCCCCN2CCCCCC2)cc1 |

Target: Cytochrome P450 3A4 (Homo sapiens, UniProt P08684)
Assay: Activation of CYP3A4 (unknown origin) assessed as activation of conversion of beetle D-luciferin to D-luciferin at 10 uM by luminescent P450-Glo assay relative to control
Type: ADME
Settings: not given

Sequence of Cytochrome P450 3A4 (P08684 whole entry): as above

| Activity | Compound |
| --- | --- |
| 18% | CCC(C)(C)c1ccc(OCCCCCCN2CCCCCC2)cc1 |
| 713% | O=C(c1ccccc1)c1cccc(OCCCCCCN2CCCCCC2)c1 |
